Experimental data taken from article PMC9667936, “Functional mapping of the 14-3-3 hub protein as a guide to design 14-3-3 molecular glues” (Chemical Science, 2022).
Where a SMILES comes first, the peptide text is derived from it. [ ]: non-standard residue; d: D form. The star is where a group is joined. ξ: configuration not given here. FITC = O=C1OC2(c3ccc(O)cc3Oc3cc(O)ccc32)c2ccc(NC(=S)*)cc21; Phe(4-NO2) = N[C@@H](Cc1ccc([N+](=O)[O-])cc1)C(=O)O; ξAla(4-thiazolyl) = NC(Cc1cscn1)C(=O)O; pS = N[C@@H](COP(=O)(O)O)C(=O)O; β3hS = N[C@@H](CO)CC(=O)O; Nva = CCC[C@H](N)C(=O)O; ξβ3hS = NC(CO)CC(=O)O; βAla = NCCC(=O)O

Molecular target: T1, 14-3-3γ (Homo sapiens, UniProt P61981)
T1 construct: made in house; host or cells: E. coli NiCo21 (DE3)
T1 sequence (P61981 1-247): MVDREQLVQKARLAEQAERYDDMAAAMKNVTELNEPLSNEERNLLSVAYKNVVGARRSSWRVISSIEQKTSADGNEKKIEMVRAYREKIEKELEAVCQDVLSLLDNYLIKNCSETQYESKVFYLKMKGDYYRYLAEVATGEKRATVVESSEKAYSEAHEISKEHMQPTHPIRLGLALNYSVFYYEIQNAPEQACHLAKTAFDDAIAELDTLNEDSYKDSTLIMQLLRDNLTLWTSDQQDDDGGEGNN
Experiment: Fluorescence anisotropy (FA) binary binding study: 14-3-3 titrated to fluorescein-labelled peptide
Conditions: for Affinity Kd / Kd: Table S4, point-mutated peptides; for Affinity Kd: 10 nM FITC-labelled peptide; for Kd: 14-3-3 titrated to 10 nM FITC-labelled peptide, HEPES pH 7.4, room temperature, 4PL fit, read-out: Affinity Kd; for ΔG (FA): Table S1
Protocol: 14-3-3γ protein expression (FP/ITC experiments)
(§1) A pPROEX HTb expression vector encoding the human 14-3-3 protein gamma (14-3-3γ) with an N-terminal his6-tag was transformed by heat shock into NiCo21 (DE3) competent cells. Single colonies were cultured in 50 mL LB medium (100 µg/mL ampicillin). After overnight incubation at 37 °C, cultures were transferred to 2 L TB media (100 µg/mL ampicillin, 1 mM MgCl2) and incubated at 37 °C until an OD600 nm of 0.8-1.2 was reached. Protein expression was then induced with 0.4 mM isopropyl-β-d-thiogalactoside (IPTG), and cultures were incubated overnight at 18 °C. Cells were harvested by centrifugation (8600 rpm, 20 minutes, 4 °C) and resuspended in lysis buffer (50 mM Hepes, pH 8.0, 300 mM NaCl, 12.5 mM imidazole, 5 mM MgCl2, 2 mM βME) containing cOmplete™ EDTA-free Protease Inhibitor Cocktail tablets (1 tablet/100 ml lysate) and benzonase (1 µl/100 ml). After lysis using a C3 Emulsiflex-C3 homogenizer (Avestin), the cell lysate was cleared by centrifugation (20000 rpm, 30 minutes, 4 °C) and purified using Ni2+-affinity chromatography (Ni-NTA superflow cartridges, Qiagen).
Typically two 5 mL columns (flow 5 mL/min) were used for a 2 L culture in which the lysate was loaded on the column washed with 10 CV wash buffer (50 mM Hepes, pH 8.0, 300 mM NaCl, 25 mM imidazole, 2 mM βME) and eluted in several fractions (2-4 CV) of elution buffer (50 mM Hepes, pH 8.0, 300 mM NaCl, 250 mM imidazole, 2 mM βME). Fractions containing the 14-3-3 protein were combined and dialyzed into 25 mM HEPES pH 8.0, 100 mM NaCl, 10 mM MgCl2, 500 µM TCEP. Finally, the protein was concentrated to ∼60 mg/mL, analyzed Q-Tof LC/MS, and aliquots were flash-frozen for storage at […]
as §1, with “sigma truncated after T231 (14-3-3σΔc) and” for “gamma (14-3-3γ)”, “tablet/ 100” for “tablet/100”, “µl/ 100” for “µl/100”, “ml).” for “ml). After lysis using a C3 Emulsiflex-C3 homogenizer (Avestin), the cell lysate was cleared by centrifugation (20000 rpm, 30 minutes, 4 °C) and purified using Ni2+-affinity chromatography (Ni-NTA superflow cartridges, Qiagen).”
After lysis using a C3 Emulsiflex-C3 homogenizer (Avestin), the cell lysate was cleared by centrifugation (20000 rpm, 30 minutes, 4 °C) and purified using Ni2+-affinity chromatography (Ni-NTA superflow cartridges, Qiagen). Typically two 5 mL columns were used for a 2 L culture in which the lysate was loaded on the column washed with 10 CV wash buffer (50 mM Hepes, pH 8.0, 300 mM NaCl, 25 mM imidazole, 2 mM βME) and eluted with several fractions (2-4 CV) of elution buffer (50 mM Hepes, pH 8.0, 300 mM NaCl, 250 mM imidazole, 2 mM βME). Fractions containing the 14-3-3 protein were combined and dialyzed into 25 mM HEPES pH 8.0, 200 mM NaCl, 10 mM MgCl2, 2 mM βME. In addition, 1 mg TEV was added for each 100 mg purified protein to remove the purification tag. The cleaved sample was then again loaded on a 10 mL Ni-NTA column to separate the cleaved product from the expression tag and residual uncleaved protein. The flowthrough was loaded on a Superdex 75 pg 16/60 size exclusion column (GE Life Sciences) using 25 mM HEPES, 100 mM NaCl, 10 mM MgCl2, 500 μM TCEP (adjusted to pH=8.0) as running buffer. Fractions containing the 14-3-3 protein were pooled and concentrated to ∼60 mg/mL, analyzed Q-Tof LC/MS, and aliquots were flash-frozen for storage at −80 […]
The peptides 1 and 2a-d were synthesized on 50 µmol scale on a Rink amide MBHA resin […]

[1] = Table S4, FA Kd / Kd of 1, replicate 1
[2] = Table S4, FA Kd / Kd of 1, replicate 2
[3] = Table S4, FA Kd / Kd of 1, replicate 3
[4] = Table S4, FA Kd of peptide divided by Kd of 1, mean of n = 3
[5] = Table S4, calculated from FA Kd, mean of n = 3
[6] = Table S4, from FA Kd, replicate 1
[7] = Table S4, from FA Kd, replicate 2
[8] = Table S4, from FA Kd, replicate 3
[9] = Table S4, ΔG minus ΔG of 1, FA, replicate 1
[10] = Table S4, ΔG minus ΔG of 1, FA, replicate 2
[11] = Table S4, ΔG minus ΔG of 1, FA, replicate 3
[12] = Table S4, ΔG of peptide minus ΔG of 1, FA, mean of n = 3
[13] = Table S2, calculated from FA KD, mean of n = 3
[14] = Table S2, from FA KD, replicate 1
[15] = Table S2, from FA KD, replicate 2
[16] = Table S2, from FA KD, replicate 3

Compound: CCC[C@H](NC(=O)[C@H](N)CCCCN)C(=O)N[C@@H](Cc1ccc([N+](=O)[O-])cc1)C(=O)NC(Cc1cscn1)C(=O)N[C@@H](COP(=O)(O)O)C(=O)N[C@@H](Cc1ccc(O)cc1)C(=O)N[C@@H](CO)CC(=O)NCCC(=O)N[C@@H](Cc1ccc([N+](=O)[O-])cc1)C(=O)N[C@@H](CCCCN)C(N)=O (stereo partly drawn) [4a] (H-[dK][Nva][Phe(4-NO2)][ξAla(4-thiazolyl)][pS]Y[β3hS][βAla][Phe(4-NO2)]K-NH2; N-terminus and C-terminus assumed)
- Affinity Kd (FA, replicate 1): 47 nM
- Affinity Kd (FA, replicate 2): 41 nM
- Affinity Kd (FA, replicate 3): 63 nM
- Kd (FA, mean of n = 3): 50 nM
- Fold change to 1 [1]: 0.9
- Fold change to 1 [2]: 0.6
- Fold change to 1 [3]: 0.9
- Fold change to 1 [4]: 0.8
- ΔG [5]: -10.0 kcal/mol
- ΔG [6]: -10.0 kcal/mol
- ΔG [7]: -10.1 kcal/mol
- ΔG [8]: -9.8 kcal/mol
- ΔΔG to 1 [9]: -0.1 kcal/mol
- ΔΔG to 1 [10]: -0.3 kcal/mol
- ΔΔG to 1 [11]: -0.1 kcal/mol
- ΔΔG to 1 [12]: -0.2 kcal/mol

Compound: CCC[C@H](NC(=O)[C@H](N)CCCCN)C(=O)N[C@@H](Cc1ccc([N+](=O)[O-])cc1)C(=O)NC(Cc1cscn1)C(=O)N[C@@H](COP(=O)(O)O)C(=O)N[C@@H](Cc1ccc([N+](=O)[O-])cc1)C(=O)N[C@@H](CO)CC(=O)NCCC(=O)N[C@@H](Cc1ccc(O)cc1)C(=O)N[C@@H](CCCCN)C(N)=O (stereo partly drawn) [5a] (H-[dK][Nva][Phe(4-NO2)][ξAla(4-thiazolyl)][pS][Phe(4-NO2)][β3hS][βAla]YK-NH2; N-terminus and C-terminus assumed)
- Affinity Kd (FA, replicate 1): 1700 nM
- Affinity Kd (FA, replicate 2): 1200 nM
- Affinity Kd (FA, replicate 3): 1700 nM
- Kd (FA, mean of n = 3): 1500 nM
- Fold change to 1 [1]: 33.2
- Fold change to 1 [2]: 17.1
- Fold change to 1 [3]: 22.5
- Fold change to 1 [4]: 24.2
- ΔG [5]: -7.9 kcal/mol
- ΔG [6]: -7.9 kcal/mol
- ΔG [7]: -8.1 kcal/mol
- ΔG [8]: -7.9 kcal/mol
- ΔΔG to 1 [9]: 2.1 kcal/mol
- ΔΔG to 1 [10]: 1.7 kcal/mol
- ΔΔG to 1 [11]: 1.8 kcal/mol
- ΔΔG to 1 [12]: 1.9 kcal/mol
- 14-3-3 binding affinity, result in words (replacement of nitro by hydroxy group at +4, compared with 5b, FA and ITC): did not restore the binding affinity

Compound: C[C@H](NC(=O)[C@H](CCCCN)NC(=O)[C@H](Cc1ccc([N+](=O)[O-])cc1)NC(=O)CCNC(=O)C[C@H](CO)NC(=O)[C@H](Cc1ccc([N+](=O)[O-])cc1)NC(=O)[C@@H](N)COP(=O)(O)O)C(=O)N[C@@H](CCCCNC(=S)Nc1ccc2c(c1)C(=O)OC21c2ccc(O)cc2Oc2cc(O)ccc21)C(N)=O [2d] (H-[pS][Phe(4-NO2)][β3hS][βAla][Phe(4-NO2)]KAK(FITC)-NH2)
- fold change in binding affinity on truncation (FA KD relative to the previous (one amino acid longer) peptide): 43 fold
- cumulative ΔΔG of truncating the entire N- or C-terminus (FA, relative to peptide 1 (2d: entire N-terminus; 2i: entire C-terminus)): 2.9 kcal/mol
- individual ΔΔG of removed residue (FA, ΔG relative to the previously truncated peptide): 2.2 kcal/mol
- ΔΔG N-term (cumulative, whole N-terminus removed) (Table S2, N-term = 2d relative to 1, FA, mean of n = 3): 2,86 kcal/mol
- ΔΔG N-term (cumulative) (Table S2, N-term = 2d relative to 1, FA, replicate 1): 2,88 kcal/mol
- ΔΔG N-term (cumulative) (Table S2, N-term = 2d relative to 1, FA, replicate 2): 2,94 kcal/mol
- ΔΔG N-term (cumulative) (Table S2, N-term = 2d relative to 1, FA, replicate 3): 2,75 kcal/mol
- Fold change to previous (Table S2, FA KD of peptide divided by KD of previous (one amino acid longer) peptide, mean of n = 3): 43,23
- Fold change to previous (Table S2, KD / KD of previous (one amino acid longer) peptide, replicate 1): 40,69
- Fold change to previous (Table S2, KD / KD of previous (one amino acid longer) peptide, replicate 2): 45,81
- Fold change to previous (Table S2, KD / KD of previous (one amino acid longer) peptide, replicate 3): 43,18
- ΔG [13]: -7,67 kcal/mol
- ΔG [14]: -7,74 kcal/mol
- ΔG [15]: -7,61 kcal/mol
- ΔG [16]: -7,65 kcal/mol
- ΔΔG (to previous) (Table S2, ΔG minus ΔG of previous peptide, FA, replicate 1): 2,19 kcal/mol
- ΔΔG (to previous) (Table S2, ΔG minus ΔG of previous peptide, FA, replicate 2): 2,26 kcal/mol
- ΔΔG (to previous) (Table S2, ΔG minus ΔG of previous peptide, FA, replicate 3): 2,23 kcal/mol
- ΔΔG (to previous) (Table S2, ΔG of peptide minus ΔG of previous (one amino acid longer) peptide, FA, mean of n = 3): 2,23 kcal/mol

Compound: CCC[C@H](NC(=O)[C@H](N)CCCCN)C(=O)N[C@@H](Cc1ccc([N+](=O)[O-])cc1)C(=O)NC(Cc1cscn1)C(=O)N[C@@H](COP(=O)(O)O)C(=O)N[C@@H](Cc1ccc([N+](=O)[O-])cc1)C(=O)NC(CO)CC(=O)NCCC(=O)N[C@@H](Cc1ccc([N+](=O)[O-])cc1)C(=O)N[C@@H](CCCCN)C(N)=O (stereo partly drawn) [compound 1] (H-[dK][Nva][Phe(4-NO2)][ξAla(4-thiazolyl)][pS][Phe(4-NO2)][ξβ3hS][βAla][Phe(4-NO2)]K-NH2)
- ΔG (FA) (calculated from FA KD, mean of n = 3): -10.5 kcal/mol
- ΔG (FA) (from FA KD, replicate 1): -10.6 kcal/mol
- ΔG (FA) (from FA KD, replicate 2): -10.6 kcal/mol
- ΔG (FA) (from FA KD, replicate 3): -10.4 kcal/mol
- ΔG [13]: -10,53 kcal/mol
- ΔG [14]: -10,61 kcal/mol
- ΔG [15]: -10,56 kcal/mol
- ΔG [16]: -10,41 kcal/mol
- Affinity Kd (FA, replicate 1): 52 nM
- Affinity Kd (FA, replicate 2): 71 nM
- Affinity Kd (FA, replicate 3): 74 nM
- ΔG [5]: -9.8 kcal/mol
- ΔG [6]: -9.9 kcal/mol
- ΔG [7]: -9.7 kcal/mol
- ΔG [8]: -9.7 kcal/mol
- free binding energy ΔG (FA) (from FA KD): -10.5 kcal/mol
